{"source": "patent US5208145A", "about": "“Assay for the presence, in cultured cells, of functional ligand-gated channels, and substances which enhance intracellular lithium accumulation by cultured cells via such channels” (The Salk Institute for Biological Studies, priority 1991, dated 1993)", "system": "PC12 cells", "conditions": "sodium formulated buffer plus 10 μM nicotine, 3H-thymidine incorporation, FIG. 1", "protocol": "To subculture, these cells were dislodged from the culture dish by pipetting medium across the culture surface, disassociated by vigorous repeat pipetting, and then distributed to new culture dishes containing fresh media. All cells were maintained at 37° C. in a humidified atmosphere supplemented to 5 percent with CO2.\nPC12 cells were distributed to 96 well Costar culture dishes (10^4 cells/well) and the cells were allowed to recover for 24 to 36 hours prior to use. Cells were never allowed to reach confluency. To conduct a lithium-flux experiment, the culture medium was removed and gently replaced with flux-buffer composed of 1.8 mM CaCl2, 25 mM glucose, 10 mM HEPES (pH 7.4), and 115 mM in either sodium chloride or lithium chloride. Each buffer was filter sterilized and supplemented with agonist, antagonist, or both, as described for the experiment being conducted. […] For PC12 cells, culture was then continued as usual for 6 hours before quantitating ^3 H-thymidine incorporation. […]\nTo determine the incorporation of ^3 H-thymidine into fluxed cells, dishes were frozen at -70°, thawed, and the DNA from each well was collected on glass filters using a Cambridge PhD cell harvester. […] Glass filters were dried, resuspended in Ecolume (ICN) scintillation cocktail, and counted in an LKB Wallace 2010 scintillation counter at 34 percent efficiency."}
{"smiles": "CN1CCCC1c1cccnc1", "note": "(stereo not shown) [nicotine]", "values": [{"measurement": "effect of the presence of nicotine on cell cycle time of PC12 cells", "result": "does not alter the cell cycle time of PC12 cells"}]}
